Measurements: US20230109010A1, “PESTICIDE COMPOSITIONS WITH SUPRAMOLECULAR STRUCTURES FOR AGRICULTURAL USE” (BPS JUST ENERGY TECHNOLOGY, LLC, priority 2020, published 2023)

Experiments:
ivyleaf morning glory = assay: Field trial in corn at V3, broadcast treatment on 2-4 inch weeds, % weed control; assay type: in vivo, Ipomoea hederacea
Text: (§1) The herbicides tested were glufosinate, glyphosate, and mesotrione. Each herbicide was combined at the specified rate with either deionized water or SymMAX™ supramolecular host water mixture commercially available from Shotwell Hydrogenics at 15 gallons per acre (GPA). Specified rates for glufosinate were 22 ounces per acre, 11 ounces per acre, and 5.5 ounces per acre. Specified rates for glyphosate were 22 ounces per acre, 11 ounces per acre, and 5.5 ounces per acre. Specified rates for mesotrione were 3 ounces per acre, 2 ounces per acre, and 1 ounce per acre.
(§2) This example was conducted as a 4 replicate, RCBD (randomized control block design) in Quitman, GA. An untreated control was used as a standard that provided no weed control and no phytotoxicity. All treatments were compared to the untreated control. Counted dead weeds and living weeds were used to determine % weed control. The untreated control was also used to determine % crop phytotoxicity for the crop. Typical indications of phytotoxicity include chlorosis, stunting, epinasty, and/or leaf burn.
(§3) The trial ran for 14 days with weekly data assessments taken on % crop phytotoxicity and % weed control of four key species: palmer amaranth (Amaranthus palmeri), ivyleaf morning glory (Ipomoea hederacea), fall panicum (Panicum dichotomiflorum) and large crabgrass (Digitaria sanguinalis The test field was over seeded with weed seed obtained from the University of Georgia prior to corn planting. Treatments were applied as a broadcast treatment when corn had reached physiological growth stage V3 and weeds were in the 2-4″ size range. Treatments were applied at various rates ranging from about 1 ounce per acre to about 22 ounces per acre. Tables 9-10 show the % weed control when the weeds are treated with glufosinate. Tables 11-12 show the % weed control when the weeds are treated with glyphosphate. Tables 13-14 show the % weed control when the weeds are treated with mesotrione.

fall panicum [1] = assay: as above; assay type: in vivo, Panicum dichotomiflorum
Text: as §1, §2, §3

large crabgrass [2] = assay: as above; assay type: in vivo, Digitaria sanguinalis
Text: as §1, §2, §3

palmer amaranth [3] = assay: as above; assay type: in vivo, Amaranthus palmeri
Text: as §1, §2, §3

palmer amaranth [4] = assay: Field trial in corn, herbicide applied 3 days after planting, % weed control; assay type: in vivo, Amaranthus palmeri
Method: (§4) The herbicides tested were acetochlor and s-metolachlor. Each herbicide was combined at the specified rate with either deionized water or SymMAX™ supramolecular host chemistry that is commercially available from Shotwell Hydrogenics at 15 gallons per acre (GPA). Specified rates for acetochlor were 0.5 parts per acre, 1 part per acre, and 2 parts per acre. […]
as §2
(§5) The trial ran for 28 days with weekly data assessments taken on % crop phytotoxicity and % weed control of three key species: palmer amaranth (Amaranthus palmeri), fall panicum (Panicum dichotomiflorum) and large crabgrass (Digitaria sanguinalis). The test field was over seeded with weed seed obtained from the University of Georgia prior to corn planting. Treatments were applied 3 days after planting as a broadcast application at various rates ranging from about 0.5 parts per acre to about 2 parts per acre. Tables 1-4 show the % weed control when the weeds are treated with acetachlor. Tables 4-8 show the % weed control when the weeds are treated with s-metolachlor.

large crabgrass [5] = assay: as above; assay type: in vivo, Digitaria sanguinalis
Method: as §4, §2, §5

fall panicum [6] = assay: as above; assay type: in vivo, Panicum dichotomiflorum
Method: as §4, §2, §5

[7] = 7 days, glufosinate 5.5 ounces/acre
[8] = 7 days, glufosinate 11 ounces/acre
[9] = 7 days, glufosinate 22 ounces/acre
[10] = 14 days, glufosinate 5.5 ounces/acre
[11] = 14 days, glufosinate 11 ounces/acre
[12] = 14 days, glufosinate 22 ounces/acre
[13] = 7 days, s-metolachlor 0.75 part/acre
[14] = 7 days, s-metolachlor 1 part/acre
[15] = 7 days, s-metolachlor 1.5 parts/acre
[16] = 14 days, s-metolachlor 0.75 part/acre
[17] = 14 days, s-metolachlor 1 part/acre
[18] = 14 days, s-metolachlor 1.5 parts/acre
[19] = 21 days, s-metolachlor 0.75 part/acre
[20] = 21 days, s-metolachlor 1 part/acre
[21] = 21 days, s-metolachlor 1.5 parts/acre
[22] = 28 days, s-metolachlor 0.75 part/acre
[23] = 28 days, s-metolachlor 1 part/acre
[24] = 28 days, s-metolachlor 1.5 parts/acre
[25] = 7 days, glyphosate 5.5 ounces/acre
[26] = 7 days, glyphosate 11 ounces/acre
[27] = 7 days, glyphosate 22 ounces/acre
[28] = 14 days, glyphosate 5.5 ounces/acre
[29] = 14 days, glyphosate 11 ounces/acre
[30] = 14 days, glyphosate 22 ounces/acre

## CP(=O)(O)CCC(N)C(=O)O (stereo not drawn) [Glufosinate, glufosinate]
Ivyleaf morning glory; [7]
  % WEED CONTROL FOR IVYLEAF MORNINGLORY: 16.5%
Ivyleaf morning glory; [8]
  % WEED CONTROL FOR IVYLEAF MORNINGLORY: 52.3%
Ivyleaf morning glory; [9]
  % WEED CONTROL FOR IVYLEAF MORNINGLORY: 70.1%
Ivyleaf morning glory; [10]
  % WEED CONTROL FOR IVYLEAF MORNINGLORY: 5.1%
Ivyleaf morning glory; [11]
  % WEED CONTROL FOR IVYLEAF MORNINGLORY: 41.2%
Ivyleaf morning glory; [12]
  % WEED CONTROL FOR IVYLEAF MORNINGLORY: 64.0%
Fall panicum [1]; [7]
  % WEED CONTROL FOR FALL PANICUM: 100.0%
Fall panicum [1]; [8]
  % WEED CONTROL FOR FALL PANICUM: 99.5%
Fall panicum [1]; [9]
  % WEED CONTROL FOR FALL PANICUM: 100.0%
Fall panicum [1]; [10]
  % WEED CONTROL FOR FALL PANICUM: 83.3%
Fall panicum [1]; [11]
  % WEED CONTROL FOR FALL PANICUM: 92.7%
Fall panicum [1]; [12]
  % WEED CONTROL FOR FALL PANICUM: 95.5%
Large crabgrass [2]; [7]
  % WEED CONTROL FOR LARGE CRABGRASS: 100.0%
Large crabgrass [2]; [8]
  % WEED CONTROL FOR LARGE CRABGRASS: 100.0%
Large crabgrass [2]; [9]
  % WEED CONTROL FOR LARGE CRABGRASS: 100.0%
Large crabgrass [2]; [10]
  % WEED CONTROL FOR LARGE CRABGRASS: 91.8%
Large crabgrass [2]; [11]
  % WEED CONTROL FOR LARGE CRABGRASS: 99.5%
Large crabgrass [2]; [12]
  % WEED CONTROL FOR LARGE CRABGRASS: 100.0%
Palmer amaranth [3]; [7]
  % WEED CONTROL FOR PALMER AMARANTH: 51.5%
Palmer amaranth [3]; [8]
  % WEED CONTROL FOR PALMER AMARANTH: 77.9%
Palmer amaranth [3]; [9]
  % WEED CONTROL FOR PALMER AMARANTH: 82.6%
Palmer amaranth [3]; [10]
  % WEED CONTROL FOR PALMER AMARANTH: 29.0%
Palmer amaranth [3]; [11]
  % WEED CONTROL FOR PALMER AMARANTH: 69.3%
Palmer amaranth [3]; [12]
  % WEED CONTROL FOR PALMER AMARANTH: 76.1%

## CCc1cccc(C)c1N(C(=O)CCl)[C@@H](C)COC [S-metolachlor, s-metolachlor]
Palmer amaranth [4]; [13]
  % WEED CONTROL FOR PALMER AMARANTH: 96.0%
Palmer amaranth [4]; [14]
  % WEED CONTROL FOR PALMER AMARANTH: 99.3%
Palmer amaranth [4]; [15]
  % WEED CONTROL FOR PALMER AMARANTH: 100.0%
Palmer amaranth [4]; [16]
  % WEED CONTROL FOR PALMER AMARANTH: 94.3%
Palmer amaranth [4]; [17]
  % WEED CONTROL FOR PALMER AMARANTH: 98.0%
Palmer amaranth [4]; [18]
  % WEED CONTROL FOR PALMER AMARANTH: 100.0%
Palmer amaranth [4]; [19]
  % WEED CONTROL FOR PALMER AMARANTH: 96.0%
Palmer amaranth [4]; [20]
  % WEED CONTROL FOR PALMER AMARANTH: 99.0%
Palmer amaranth [4]; [21]
  % WEED CONTROL FOR PALMER AMARANTH: 100.0%
Palmer amaranth [4]; [22]
  % WEED CONTROL FOR PALMER AMARANTH: 98.8%
Palmer amaranth [4]; [23]
  % WEED CONTROL FOR PALMER AMARANTH: 100.0%
Palmer amaranth [4]; [24]
  % WEED CONTROL FOR PALMER AMARANTH: 100.0%
Large crabgrass [5]; [13]
  % WEED CONTROL FOR LARGE CRABGRASS: 92.0%
Large crabgrass [5]; [14]
  % WEED CONTROL FOR LARGE CRABGRASS: 99.0%
Large crabgrass [5]; [15]
  % WEED CONTROL FOR LARGE CRABGRASS: 100.0%
Large crabgrass [5]; [16]
  % WEED CONTROL FOR LARGE CRABGRASS: 82.8%
Large crabgrass [5]; [17]
  % WEED CONTROL FOR LARGE CRABGRASS: 89.0%
Large crabgrass [5]; [18]
  % WEED CONTROL FOR LARGE CRABGRASS: 98.0%
Large crabgrass [5]; [19]
  % WEED CONTROL FOR LARGE CRABGRASS: 91.3%
Large crabgrass [5]; [20]
  % WEED CONTROL FOR LARGE CRABGRASS: 84.3%
Large crabgrass [5]; [21]
  % WEED CONTROL FOR LARGE CRABGRASS: 93.0%
Large crabgrass [5]; [22]
  % WEED CONTROL FOR LARGE CRABGRASS: 90.0%
Large crabgrass [5]; [23]
  % WEED CONTROL FOR LARGE CRABGRASS: 99.7%
Large crabgrass [5]; [24]
  % WEED CONTROL FOR LARGE CRABGRASS: 100.0%
Fall panicum [6]; [13]
  % WEED CONTROL FOR FALL PANICUM: 91.3%
Fall panicum [6]; [14]
  % WEED CONTROL FOR FALL PANICUM: 97.5%
Fall panicum [6]; [15]
  % WEED CONTROL FOR FALL PANICUM: 100.0%
Fall panicum [6]; [16]
  % WEED CONTROL FOR FALL PANICUM: 83.5%
Fall panicum [6]; [17]
  % WEED CONTROL FOR FALL PANICUM: 91.8%
Fall panicum [6]; [18]
  % WEED CONTROL FOR FALL PANICUM: 97.8%
Fall panicum [6]; [19]
  % WEED CONTROL FOR FALL PANICUM: 90.1%
Fall panicum [6]; [20]
  % WEED CONTROL FOR FALL PANICUM: 89.4%
Fall panicum [6]; [21]
  % WEED CONTROL FOR FALL PANICUM: 98.9%
Fall panicum [6]; [22]
  % WEED CONTROL FOR FALL PANICUM: 88.3%
Fall panicum [6]; [23]
  % WEED CONTROL FOR FALL PANICUM: 97.3%
Fall panicum [6]; [24]
  % WEED CONTROL FOR FALL PANICUM: 100.0%

## O=C(O)CNCP(=O)(O)O [Glyphosate, glyphosate]
Ivyleaf morning glory; [25]
  % WEED CONTROL FOR IVYLEAF MORNINGLORY: 14.3%
Ivyleaf morning glory; [26]
  % WEED CONTROL FOR IVYLEAF MORNINGLORY: 13.5%
Ivyleaf morning glory; [27]
  % WEED CONTROL FOR IVYLEAF MORNINGLORY: 28.0%
Ivyleaf morning glory; [28]
  % WEED CONTROL FOR IVYLEAF MORNINGLORY: 9.7%
Ivyleaf morning glory; [29]
  % WEED CONTROL FOR IVYLEAF MORNINGLORY: 59.8%
Ivyleaf morning glory; [30]
  % WEED CONTROL FOR IVYLEAF MORNINGLORY: 76.3%
Fall panicum [1]; [25]
  % WEED CONTROL FOR FALL PANICUM: 85.8%
Fall panicum [1]; [26]
  % WEED CONTROL FOR FALL PANICUM: 97.5%
Fall panicum [1]; [27]
  % WEED CONTROL FOR FALL PANICUM: 98.8%
Fall panicum [1]; [28]
  % WEED CONTROL FOR FALL PANICUM: 81.8%
Fall panicum [1]; [29]
  % WEED CONTROL FOR FALL PANICUM: 95.4%
Fall panicum [1]; [30]
  % WEED CONTROL FOR FALL PANICUM: 98.4%
Large crabgrass [2]; [25]
  % WEED CONTROL FOR LARGE CRABGRASS: 90.8%
Large crabgrass [2]; [26]
  % WEED CONTROL FOR LARGE CRABGRASS: 97.8%
Large crabgrass [2]; [27]
  % WEED CONTROL FOR LARGE CRABGRASS: 100.0%
Large crabgrass [2]; [28]
  % WEED CONTROL FOR LARGE CRABGRASS: 89.0%
Large crabgrass [2]; [29]
  % WEED CONTROL FOR LARGE CRABGRASS: 94.0%
Large crabgrass [2]; [30]
  % WEED CONTROL FOR LARGE CRABGRASS: 98.0%
Palmer amaranth [3]; [25]
  % WEED CONTROL FOR PALMER AMARANTH: 63.8%
Palmer amaranth [3]; [26]
  % WEED CONTROL FOR PALMER AMARANTH: 76.4%
Palmer amaranth [3]; [27]
  % WEED CONTROL FOR PALMER AMARANTH: 81.9%
Palmer amaranth [3]; [28]
  % WEED CONTROL FOR PALMER AMARANTH: 58.3%
Palmer amaranth [3]; [29]
  % WEED CONTROL FOR PALMER AMARANTH: 75.8%
Palmer amaranth [3]; [30]
  % WEED CONTROL FOR PALMER AMARANTH: 83.5%
